According to patent US9113629B2, “4-amino-6-(4-substituted-phenyl)-picolinates and 6-amino-2-(4-substituted-phenyl)-pyrimidine-4-carboxylates and their use as herbicides” (DOW AGROSCIENCES LLC, priority 2013, dated 2015):
Like-named read-outs stand apart in the source and are kept apart here.

Assays:
[1] = test system: Key Broadleaf Weed and Crop Species; experiment: Post-emergent Test II herbicidal activity (Table 5); assay type: in vivo; conditions: post-emergence, 336 h, 14 days after application; for pest or weed control at 70 g/ha: application rate 70 g ai/ha; for pest or weed control at 140 g/ha: application rate 140 g ai/ha
Outline: (§1)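 Greenhouse post-emergent assay: seedlings (first/second true leaf) in Metro-Mix 360 were sprayed at 187 L/ha at a top rate plus twofold dilutions down to 1/16×; solvent-blank controls were included. Percent visual injury was read at 14 d.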

[2] = test system: Key Grass and Sedge Weeds as well as Grass Crops; experiment: Post-emergent Test II herbicidal activity (Table 6); assay type: in vivo; conditions: post-emergence, 336 h; for pest or weed control at 70 g/ha: 70 g ai/ha; for pest or weed control at 140 g/ha: 140 g ai/ha
Outline: as §1

[3] = ABUTH: velvetleaf (Abutilon theophrasti), read-out: Visual Growth Reduction (%) 14 Days After Application, ABUTH
[4] = AMARE: redroot pigweed (Amaranthus retroflexus), read-out: Visual Growth Reduction (%) 14 Days After Application, AMARE
[5] = BRSNN: oilseed-rape, canola (Brassica napus), read-out: Visual Growth Reduction (%) 14 Days After Application, BRSNN
[6] = CHEAL: lambsquarters (Chenopodium album), read-out: Visual Growth Reduction (%) 14 Days After Application, CHEAL
[7] = EPHHL: wild poinsettia (Euphorbia heterophylla), read-out: Visual Growth Reduction (%) 14 Days After Application, EPHHL
[8] = HELAN: sunflower (Helianthus annuus), read-out: Visual Growth Reduction (%) 14 Days After Application, HELAN
[9] = VIOTR: wild pansy (Viola tricolor), read-out: Visual Growth Reduction (%) 14 Days After Application, VIOTR
[10] = CYPES: yellow nutsedge (Cyperus esculentus), read-out: Visual Growth Reduction (%) 14 Days After Application, CYPES
[11] = DIGSA: crabgrass (Digitaria sanguinalis), read-out: Visual Growth Reduction (%) 14 Days After Application, DIGSA
[12] = ECHCG: barnyardgrass (Echinochloa crus-galli), read-out: Visual Growth Reduction (%) 14 Days After Application, ECHCG
[13] = ORYSA: rice (Oryza sativa), crop, read-out: Visual Growth Reduction (%) 14 Days After Application, ORYSA
[14] = SETFA: giant foxtail (Setaria faberi), read-out: Visual Growth Reduction (%) 14 Days After Application, SETFA
[15] = SORVU: grain sorghum (Sorghum vulgare), read-out: Visual Growth Reduction (%) 14 Days After Application, SORVU
[16] = TRZSS (wheat, Triticum aestivum), crop, read-out: Visual Growth Reduction (%) 14 Days After Application, TRZSS
[17] = ZEAMX: maize, corn (Zea mays), crop, read-out: Visual Growth Reduction (%) 14 Days After Application, ZEAMX

Compound: COC(=O)c1nc(-c2ccc(Cl)c(F)c2)c(F)c(N)c1Cl [Compound 216]
- pest or weed control at 70 g/ha [1, 3]: 95 to 100%
- pest or weed control at 140 g/ha [1, 3]: 95 to 100%
- pest or weed control at 70 g/ha [1, 4]: 95 to 100%
- pest or weed control at 140 g/ha [1, 4]: 95 to 100%
- pest or weed control at 70 g/ha [1, 5]: 75 to 84%
- pest or weed control at 140 g/ha [1, 5]: 85 to 94%
- pest or weed control at 70 g/ha [1, 6]: 95 to 100%
- pest or weed control at 140 g/ha [1, 6]: 95 to 100%
- pest or weed control at 70 g/ha [1, 7]: 95 to 100%
- pest or weed control at 140 g/ha [1, 7]: 95 to 100%
- pest or weed control at 70 g/ha [1, 8]: 95 to 100%
- pest or weed control at 140 g/ha [1, 8]: 95 to 100%
- pest or weed control at 70 g/ha [1, 9]: 85 to 94%
- pest or weed control at 140 g/ha [1, 9]: 95 to 100%
- pest or weed control at 70 g/ha [2, 10]: 85 to 94%
- pest or weed control at 140 g/ha [2, 10]: 95 to 100%
- pest or weed control at 70 g/ha [2, 11]: 30 to 44%
- pest or weed control at 140 g/ha [2, 11]: 75 to 84%
- pest or weed control at 70 g/ha [2, 12]: 95 to 100%
- pest or weed control at 140 g/ha [2, 12]: 95 to 100%
- pest or weed control at 70 g/ha [2, 13]: 0 to 29%
- pest or weed control at 140 g/ha [2, 13]: 0 to 29%
- pest or weed control at 70 g/ha [2, 14]: 30 to 44%
- pest or weed control at 140 g/ha [2, 14]: 45 to 59%
- pest or weed control at 70 g/ha [2, 15]: 85 to 94%
- pest or weed control at 140 g/ha [2, 15]: 85 to 94%
- pest or weed control at 70 g/ha [2, 16]: 0 to 29%
- pest or weed control at 140 g/ha [2, 16]: 30 to 44%
- pest or weed control at 70 g/ha [2, 17]: 85 to 94%
- pest or weed control at 140 g/ha [2, 17]: 85 to 94%
- melting point: 111 to 114 °C
